Results published in ChEMBL document CHEMBL3244067, “Synthesis and biological activity of carboxyl-terminus modified prostaglandin analogues” (J Med Chem, 1979).

Columns and labels:
[1] = tested on: Rattus norvegicus; assay: Antisecretory activity in rat assessed as inhibition of pentagastrin-stimulated gastric acid secretion at 10 ug/kg, iv relative to PGE2; type: functional, Stomach
[2] = tested on: Mus musculus; assay: Induction of diarrheal activity in conscious mouse at 0.1 to 3 mg/kg, iv administered for 30 mins relative to PGE2; type: organism-based; parameters: dose 0.1-3 mg/kg, route intravenous; conditions: in vivo, 0.5 h
[3] = tested on: Cavia porcellus; assay: Bronchodilator activity in Reed-Willet guinea pig assessed as inhibition of histamine-induced bronchoconstriction at 0.28 mM administered through nebulizer for 1 min relative to PGE2; type: functional
[4] = Spasmogenic activity in nulliparous guinea pig uterine relative to PGE2; type: functional, Cavia porcellus, Uterus
[5] = tested on: Canis familiaris; assay: Hypotensive activity in iv dosed PGE2-treated Mongrel dog assessed as change in blood pressure of greater than 10 mm by mercury manometer relative to PGE2; type: functional, Canis lupus familiaris
[6] = tested on: Rattus norvegicus; assay: Antisecretory activity in rat assessed as inhibition of pentagastrin-stimulated gastric acid secretion at 50 ug/kg, iv relative to PGE2; type: functional, Stomach
[7] = Dissociation constant, pKa of the compound; type: physicochemical

Structure (SMILES)	fold change (FC) [2]	pKa [7]	fold change (FC) [1]	fold change (FC) [3]	fold change (FC) [4]	fold change (FC) [5]	fold change (FC) [6]
CCCCC(C)(C)[C@H](O)/C=C/[C@H]1[C@H](O)CC(=O)[C@@H]1C/C=C\CCCC(=O)O	5300		360	41	33	10	
CCCCC[C@H](O)/C=C/[C@H]1[C@H](O)CC(=O)[C@@H]1C/C=C\CCCC(=O)NC(=O)c1ccccc1	83			87	67	10	40
CCCCC[C@H](O)/C=C/[C@H]1[C@H](O)CC(=O)[C@@H]1C/C=C\CCNC(=O)NC(C)=O	< 5			25	<0.1	<0.5	0
CCCCC[C@H](O)/C=C/[C@H]1[C@H](O)CC(=O)[C@@H]1C/C=C\CCCC(=O)NC(=O)NCC	27			28	0.2	0.5	0
CCCCC[C@H](O)/C=C/[C@H]1[C@H](O)CC(=O)[C@@H]1C/C=C\CCCC(=O)NS(=O)(=O)c1ccccc1	33			28	3.1	<0.5	20
CCCCC(C)(C)[C@H](O)/C=C/[C@H]1[C@H](O)CC(=O)[C@@H]1C/C=C\CCCC(=O)NC(C)=O	1250		330	24	100	2.5	
CCCCC(C)(C)[C@H](O)/C=C/[C@H]1[C@H](O)CC(=O)[C@@H]1C/C=C\CCCC(=O)NS(C)(=O)=O	1350		220	28	25	<0.5	
c1ccc([P+](CCCCc2nnn[nH]2)(c2ccccc2)c2ccccc2)cc1		4.93					
CC(=O)NC(=O)CCCC[P+](c1ccccc1)(c1ccccc1)c1ccccc1		12.9					
O=C(CCCC[P+](c1ccccc1)(c1ccccc1)c1ccccc1)NC(=O)c1ccccc1		12.9					
CS(=O)(=O)NC(=O)CCCC[P+](c1ccccc1)(c1ccccc1)c1ccccc1		5.25					
O=C(CCCC[P+](c1ccccc1)(c1ccccc1)c1ccccc1)NS(=O)(=O)c1ccccc1		5.12					
NC(=O)CCCC[P+](c1ccccc1)(c1ccccc1)c1ccccc1		15.1					
O=C(O)CCCC[P+](c1ccccc1)(c1ccccc1)c1ccccc1		5.19					

The next lines start with results.

fold change (FC) [2]	pKa [7]	Structure (SMILES)	fold change (FC) [1]	fold change (FC) [3]	fold change (FC) [4]	fold change (FC) [5]	fold change (FC) [6]
50		CCCCC[C@H](O)/C=C/[C@H]1[C@H](O)CC(=O)[C@@H]1C/C=C\CCCc1nnn[nH]1		65	100	10	35
100		CCCCC[C@H](O)/C=C/[C@H]1[C@H](O)CC(=O)[C@@H]1C/C=C\CCCC(=O)NC(C)=O		63	65	25	160
10		CCCCC[C@H](O)/C=C/[C@H]1[C@H](O)CC(=O)[C@@H]1C/C=C\CCCC(=O)NS(C)(=O)=O		47	7	1	12
10		CCCCC[C@H](O)/C=C/[C@H]1[C@H](O)CC(=O)[C@@H]1C/C=C\CCCC(N)=O		28	0.6	10	0
< 5		CCCCC[C@H](O)/C=C/[C@@H]1[C@@H](C/C=C\CCCc2nnn[nH]2)[C@@H](O)C[C@H]1O			0.8	2.5	
78		CCCCC[C@H](O)/C=C/[C@@H]1[C@@H](C/C=C\CCCC(=O)NC(C)=O)[C@@H](O)C[C@H]1O			30	<0.5	
< 5		CCCCC[C@H](O)/C=C/[C@@H]1[C@@H](C/C=C\CCCC(=O)NC(=O)c2ccccc2)[C@@H](O)C[C@H]1O			0.9	0.5	
< 5		CCCCC[C@H](O)/C=C/[C@@H]1[C@@H](C/C=C\CCNC(=O)NC(C)=O)[C@@H](O)C[C@H]1O			<0.1	<0.5	
< 10		CCCCC[C@H](O)/C=C/[C@@H]1[C@@H](C/C=C\CCCC(=O)NC(=O)NCC)[C@@H](O)C[C@H]1O			<0.1	<0.5	
25		CCCCC[C@H](O)/C=C/[C@@H]1[C@@H](C/C=C\CCCC(=O)NS(C)(=O)=O)[C@@H](O)C[C@H]1O			<0.1	<0.5	
< 10		CCCCC[C@H](O)/C=C/[C@@H]1[C@@H](C/C=C\CCCC(=O)NS(=O)(=O)c2ccccc2)[C@@H](O)C[C@H]1O			<0.1	<0.5	
< 5		CCCCC[C@H](O)/C=C/[C@@H]1[C@@H](C/C=C\CCCC(N)=O)[C@@H](O)C[C@H]1O			<0.1	2.5	
2550		CCCCC(C)(C)[C@H](O)/C=C/[C@H]1[C@H](O)CC(=O)[C@@H]1C/C=C\CCCc1nnn[nH]1	130	76	120	10	
6.5		CCCCC[C@H](O)/C=C/[C@@H]1[C@@H](C/C=C\CCCC(=O)O)[C@@H](O)C[C@H]1O [DINOPROST]			10	10	
